Values quoted from earlier work in patent US20050065131A1, “2-alkylidene-19-nor-vitamin D derivatives for enhancement of peak bone mass in adolescence” (Pfizer Inc, priority 2003, published 2005).

Test system: Bone Calcium Mobilization
Settings: at both dose levels (130 and 260 pmol/day), 7 days

With `C=C1[C@H](O)CC(=C/C=C2\CCC[C@]3(C)[C@@H]([C@H](C)CCCC(C)(C)O)CC[C@@H]23)C[C@H]1O` [2-Methylene-19-Nor-1,25-(OH)2D3, 1α,25-dihydroxy-2-methylene-19-nor-vitamin D3] as the molecule, how does the “bone calcium mobilization, result in words” value read?
The value was “extremely strong”.
